Results: US20220348876A1, “METABOLISM GUIDES DEFINITIVE LINEAGE SPECIFICATION DURING ENDOTHELIAL TO HEMATOPOIETIC TRANSITION” (Amniotics AB, priority 2019, published 2022)

Tests used:
LT-HSCs = test: CFU assay of LT-HSCs sorted from E14.5 fetal livers of treated embryos; format: in vivo, mice; conditions: DCA-treated embryos vs control and UK5099
Method: (§1) Pregnant female C57Bl/6xB6.SJL mice were injected intraperitoneally at E9.5 with UK5099 (4 mg/kg) or DCA (200 mg/kg) or PBS (control). Embryos were harvested at E14.5 and individually weighed and processed. Fetal livers were dissected and homogenized in 800 μL ice cold PBS supplemented with 2% fetal bovine serum (FBS) and FL cells were washed in PBS with 2% FBS. For the differentiated lineage panel, cells were stained with B220 and CD19 (B-cell markers)-PE, CD3e-APC, Ter119-PeCy7 and CD71-FITC and analyzed on a BD FACSARIA III. For the HSC panel, samples were first treated with ammonium chloride solution (STEMCELL Technologies, France) to lyse red blood cells, washed twice in ice cold PBS with 2% FBS, stained with CD3e, B220, Ter119, Gr1 (Lineage)-PeCy5, c-Kit-Efluor780, Sca1-BV421, CD48-FITC, CD150-BV605 and 7-AAD (for dead cell exclusion) and analyzed on a BD FACSARIA III. […] For plating of CFU assays, 100 LT-HSCs were sorted (gating strategy shown in FIG. 13, d) and resuspended in 3.0 mL Methocult M3434 (STEMCELL Technologies, France). Each mixture was divided onto 2 wells of a non-tissue culture treated 6-well plate. Following a 14-day incubation in a humidified incubator at 37° C., 5% CO2, 20% O2, colonies were morphologically distinguished and scored.

C57Bl/6xB6.SJL mice = test: In vivo compound injection of pregnant mice, fetal liver analysis at E14.5
Method: as §1

EHT cells = test: EHT cell subculture with compounds, flow cytometry; format: cell-based, human; conditions: deriving from EHT cells, day 6; UK5099 10 μM
[1] = system: mitochondrial pyruvate carrier (MPC); conditions: read-out: IC50 of pyruvate-dependent O2 consumption; cited from earlier work

| Structure (SMILES) | decrease in the BFU-E to CFU-GM ratio (LT-HSCs) [%] | effect on in vivo EHT and hematopoiesis (C57Bl/6xB6.SJL mice; UK5099 4 mg/kg i.p. at E9.5) | frequency of phenotypic long-term HSCs (LT-HSCs) (C57Bl/6xB6.SJL mice; fetal liver E14.5, i.p. at E9.5, UK5099 4 mg/kg or DCA 200 mg/kg) | decrease in the CD43+CD45+ population (EHT cells) | IC50 [1] [µM] |
| --- | --- | --- | --- | --- | --- |
| O=C(O)C(Cl)Cl [DCA, dichloroacetate] | 80 |  |  |  |  |
| N#C/C(=C\c1cn(-c2ccccc2)c2ccccc12)C(=O)O [UK5099] |  | No significant effect | not affected | 2 -fold | […] |
